In patent US11413260B2, “Use of 1,3-propanedisulfonic acid or pharmaceutically acceptable salts thereof for the treatment of sarcoidosis” (Icahn School of Medicine at Mount Sinai, priority 2014, dated 2022):

What was measured:
[1] = tested on: SAA-induced production of IL-18 by THP-1 cells; assay: SAA-stimulated inflammation in THP-1 cells: IL-18 production; assay type: cell-based; conditions: THP-1 cells treated with PMA and SAA
Text: (§1) FIG. 1 summarizes the protocol employed to evaluate the effect of 1,3-propanedisulfonic acid (or a pharmaceutically acceptable salt thereof) on SAA (serum amyloid A) stimulated inflammation in THP-1 cells.
(§2) THP-1 cells were subjected to PMA (phorbol 12-myristate 13-acetate (EMD Cat. #524400)), SAA (serum amyloid A (PeroTech Cat. #300-13)), and 1,3-propanedisulfonic acid (KIACTA C933 (NRA610-01-CF)). The SAA treated cells were used as a positive control, with the SAA increasing the inflammatory mediators, TNF, IL-18 and IL-10. 1,3-propanedisulfonic acid is added to the cell cultures and the effect on TNF, IL-18 and IL-10 levels is measured.

[2] = tested on: SAA-induced production of IL-10 by THP-1 cells; assay: SAA-stimulated inflammation in THP-1 cells: IL-10 production; assay type: cell-based; conditions: THP-1 cells treated with PMA and SAA
Text: as §1, §2

[3] = tested on: SAA-induced production of IL-TNF by THP-1 cells; assay: SAA-stimulated inflammation in THP-1 cells: TNF production; assay type: cell-based; conditions: THP-1 cells treated with PMA and SAA
Text: as §1, §2

sarcoidosis = assay: Treatment of a patient diagnosed with sarcoidosis; assay type: in vivo
Protocol: A patient is diagnosed with sarcoidosis, and 1,3-propane disulfonic acid is administered to the patient.

O=S(=O)(O)CCCS(=O)(=O)O [1,3-propanedisulfonic acid]
concentration that inhibits SAA-induced production of IL-18 [1]: ≥ 5 mg/mL
concentration that inhibits SAA-induced production of IL-10 [2]: ≥ 2.5 mg/mL
concentration that inhibits SAA-induced production of IL-TNF [3]: ≥ 1.25 mg/mL
effect on sarcoidosis symptoms (sarcoidosis): reduction and/or alleviation of sarcoidosis symptoms
